One test addresses T1, RiPgm (Roseburia intestinalis, UniProt C7G6G9).
T1 construct: gene pgcA_1; recombinant from E. coli, untagged (stop codon before His-tag), HIC purified; encoded in MULL (ROSINTL182_05469-83), own locus tag not in text
T1 sequence (C7G6G9 1-572): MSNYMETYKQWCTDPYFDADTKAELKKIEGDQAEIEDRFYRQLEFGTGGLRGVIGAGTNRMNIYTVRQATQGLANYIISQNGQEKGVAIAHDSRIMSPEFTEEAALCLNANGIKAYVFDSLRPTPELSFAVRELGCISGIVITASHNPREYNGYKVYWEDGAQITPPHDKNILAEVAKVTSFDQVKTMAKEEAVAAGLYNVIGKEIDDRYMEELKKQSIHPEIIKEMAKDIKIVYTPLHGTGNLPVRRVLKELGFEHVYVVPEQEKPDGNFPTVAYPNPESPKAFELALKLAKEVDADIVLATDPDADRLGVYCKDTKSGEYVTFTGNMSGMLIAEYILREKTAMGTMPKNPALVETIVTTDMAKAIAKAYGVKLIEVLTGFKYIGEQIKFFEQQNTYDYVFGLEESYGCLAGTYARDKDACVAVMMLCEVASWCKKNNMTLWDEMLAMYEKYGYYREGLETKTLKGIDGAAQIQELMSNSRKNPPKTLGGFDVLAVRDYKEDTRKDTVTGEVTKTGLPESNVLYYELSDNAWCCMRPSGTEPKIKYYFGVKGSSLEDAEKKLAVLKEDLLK
The test can be described thus: HPAEC-PAD of M6P formed. The note with it: 10 mM sodium phosphate pH 5.8, 1 mM MgCl2, 37 °C. It is filed as biochemical.

For a further test, the target named is T2, RiGH113 (Roseburia intestinalis, UniProt C7G6H0).
T2 construct: gene RIL182_01090; recombinant from E. coli, untagged (stop codon before His-tag), HIC purified
T2 sequence (C7G6H0 1-311): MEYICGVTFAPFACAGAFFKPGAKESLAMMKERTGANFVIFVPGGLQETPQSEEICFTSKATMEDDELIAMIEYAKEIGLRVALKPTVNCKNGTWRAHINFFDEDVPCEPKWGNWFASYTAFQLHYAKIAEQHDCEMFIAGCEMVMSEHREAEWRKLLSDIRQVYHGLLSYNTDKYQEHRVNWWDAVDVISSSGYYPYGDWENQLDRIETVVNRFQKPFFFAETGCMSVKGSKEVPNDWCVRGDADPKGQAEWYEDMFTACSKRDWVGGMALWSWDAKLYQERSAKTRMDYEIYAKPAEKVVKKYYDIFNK
The test can be described thus: HPAEC-PAD of mannose released. The note with it: 10 mM sodium phosphate pH 5.8, 37 °C, overnight. It is filed as biochemical.

The next test deals with T3, RiMep (Roseburia intestinalis, UniProt C7G6G3).
T3 construct: gene ce-ne1; recombinant from E. coli, untagged (stop codon before His-tag), HIC purified
T3 sequence (C7G6G3 1-409): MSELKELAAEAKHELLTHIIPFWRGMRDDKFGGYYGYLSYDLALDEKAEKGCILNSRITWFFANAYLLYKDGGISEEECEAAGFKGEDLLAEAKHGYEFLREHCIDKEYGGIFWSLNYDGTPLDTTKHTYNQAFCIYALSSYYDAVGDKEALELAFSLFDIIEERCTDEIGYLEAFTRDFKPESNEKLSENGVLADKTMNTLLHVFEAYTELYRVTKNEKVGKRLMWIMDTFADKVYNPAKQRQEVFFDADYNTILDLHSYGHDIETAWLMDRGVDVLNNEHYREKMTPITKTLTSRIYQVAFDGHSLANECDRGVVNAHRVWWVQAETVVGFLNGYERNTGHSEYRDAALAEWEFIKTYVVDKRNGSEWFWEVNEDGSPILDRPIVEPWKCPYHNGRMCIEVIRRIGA
The test can be described thus: HPAEC-PAD of epimerization products. It is filed as biochemical. The note with it: 10 mM sodium phosphate pH 5.8, 37 °C.

The target in test [1] is T4, RiCBM23 (Roseburia intestinalis).
T4 construct: expressed in Escherichia coli, immobilized on NTA chip (His6-tag)
Kind of test: SPR (Biacore T100, CBM immobilized on NTA chip). It is filed as binding. The note with it: 25 °C, 20 mM phosphate/citrate pH 6.5, 150 mM NaCl. From the text:
SPR (Biacore T100, CBM immobilized on NTA chip) on RiCBM23

A further test deals with T5, RiMnBP (Roseburia intestinalis, UniProt C7G6G6).
T5 construct: gene msmE; mature form, cloned in pETM-11, expressed in E. coli
T5 sequence (C7G6G6 23-489): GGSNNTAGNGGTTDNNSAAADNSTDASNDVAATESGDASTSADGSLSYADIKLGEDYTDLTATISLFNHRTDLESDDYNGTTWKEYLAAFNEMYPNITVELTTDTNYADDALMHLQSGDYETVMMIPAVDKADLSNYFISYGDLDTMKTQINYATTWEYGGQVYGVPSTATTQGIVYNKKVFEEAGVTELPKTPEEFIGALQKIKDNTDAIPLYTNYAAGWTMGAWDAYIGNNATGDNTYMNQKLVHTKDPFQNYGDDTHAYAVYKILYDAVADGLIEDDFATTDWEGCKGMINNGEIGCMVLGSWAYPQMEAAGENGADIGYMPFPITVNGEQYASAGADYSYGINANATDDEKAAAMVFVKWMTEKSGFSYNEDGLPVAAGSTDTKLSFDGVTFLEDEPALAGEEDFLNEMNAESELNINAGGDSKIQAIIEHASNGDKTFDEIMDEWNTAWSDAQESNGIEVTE
The test can be described thus: ITC. It is filed as binding. The note with it: 25 °C, 10 mM sodium phosphate pH 6.5.

Another test has as its target T6, RiCBM27 (Roseburia intestinalis, UniProt Z9TV37KX76).
T6 construct: expressed in Escherichia coli, immobilized on NTA chip (His6-tag)
T6 sequence (Z9TV37KX76 38-185 limits assumed): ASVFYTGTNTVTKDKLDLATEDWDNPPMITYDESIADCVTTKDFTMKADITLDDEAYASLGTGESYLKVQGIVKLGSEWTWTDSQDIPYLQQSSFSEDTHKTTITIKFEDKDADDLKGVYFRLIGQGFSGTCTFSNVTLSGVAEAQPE
Kind of test: SPR (Biacore T100, CBM immobilized on NTA chip). Format: binding. The note with it: 25 °C, 20 mM phosphate/citrate pH 6.5, 150 mM NaCl. From the text:
SPR (Biacore T100, CBM immobilized on NTA chip) on RiCBM27

Another test deals with T7, RiGH130_2 (Roseburia intestinalis, UniProt C7G6G1).
T7 construct: gene RIL182_01100; recombinant from E. coli, C-terminal His6-tag
T7 sequence (C7G6G1 entry or part of it): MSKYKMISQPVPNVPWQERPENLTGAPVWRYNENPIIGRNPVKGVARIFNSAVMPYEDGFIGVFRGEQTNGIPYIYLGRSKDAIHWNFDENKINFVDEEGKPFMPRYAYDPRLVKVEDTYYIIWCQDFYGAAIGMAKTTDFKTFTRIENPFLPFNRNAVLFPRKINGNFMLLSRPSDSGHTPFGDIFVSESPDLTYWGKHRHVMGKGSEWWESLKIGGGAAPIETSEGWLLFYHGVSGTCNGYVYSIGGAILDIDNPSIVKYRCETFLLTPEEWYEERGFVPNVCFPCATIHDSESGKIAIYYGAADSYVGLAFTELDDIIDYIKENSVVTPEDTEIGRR
The test can be described thus: HPAEC-PAD of phosphorolysis products. The note with it: 100 mM sodium phosphate pH 5.8, 37 °C. It is filed as biochemical.

Consider `O=P(O)(O)O[C@H]1O[C@H](CO)[C@@H](O)[C@H](O)[C@@H]1O` [M1P, mannose-1-phosphate], for which, at RiPgm, the “HPAEC-PAD of M6P formed” value was “RiPgm catalyzes the interconversion of M1P and mannose 6-phosphate (M6P)”.

For `OC[C@H]1O[C@@H](O[C@H]2[C@H](O)[C@H](O)C(O)O[C@@H]2CO)[C@@H](O)[C@@H](O)[C@@H]1O` (stereo partly drawn) [M2, mannobiose], the “HPAEC-PAD of mannose released” value at RiGH113 is listed as “After overnight incubation with RiGH113, M2 was partially degraded to mannose”. Also, at RiMep, the “HPAEC-PAD of epimerization products” value is “RiMep was active on M2 and cellobiose (G2), releasing M1G1 and G1M1, respectively”.

In the case of `OC[C@H]1O[C@@H](O[C@H]2[C@H](O)[C@H](O)[C@H](O[C@H]3[C@H](O)[C@H](O)C(O)O[C@@H]3CO)O[C@@H]2CO)[C@@H](O)[C@@H](O)[C@@H]1O` (stereo partly drawn) [M3, mannotriose], the Kd is 230 ± 20 µM in test [1], 2.62 µM at RiMnBP and 1590 ± 30 µM on RiCBM27.

Take `OC[C@H]1O[C@@H](O[C@H]2[C@H](O)[C@H](O)[C@H](O[C@H]3[C@H](O)[C@H](O)[C@H](O[C@H]4[C@H](O)[C@H](O)C(O)O[C@@H]4CO)O[C@@H]3CO)O[C@@H]2CO)[C@@H](O)[C@@H](O)[C@@H]1O` (stereo partly drawn) [M4, mannotetraose]: the dissociation constant (Kd) is 130 ± 50 µM in test [1], 3.89 µM at RiMnBP and 658 ± 20 µM at RiCBM27. In addition, the “HPAEC-PAD of phosphorolysis products” value at RiGH130_2 is “phosphorolyzed M4 into M3, M2 and mannose-1-phosphate (M1P)”.

As to `OC[C@H]1O[C@@H](O[C@H]2[C@H](O)[C@H](O)[C@H](O[C@H]3[C@H](O)[C@H](O)[C@H](O[C@H]4[C@H](O)[C@H](O)[C@H](O[C@H]5[C@H](O)[C@H](O)C(O)O[C@@H]5CO)O[C@@H]4CO)O[C@@H]3CO)O[C@@H]2CO)[C@@H](O)[C@@H](O)[C@@H]1O` (stereo partly drawn) [M5, mannopentaose], the dissociation constant (Kd) was 198 ± 70 µM in test [1], 2.55 µM at RiMnBP and 321 ± 20 µM on RiCBM27.

For `OC[C@H]1O[C@@H](O[C@H]2[C@H](O)[C@H](O)[C@H](O[C@H]3[C@H](O)[C@H](O)[C@H](O[C@H]4[C@H](O)[C@H](O)[C@H](O[C@H]5[C@H](O)[C@H](O)[C@H](O[C@H]6[C@H](O)[C@H](O)C(O)O[C@@H]6CO)O[C@@H]5CO)O[C@@H]4CO)O[C@@H]3CO)O[C@@H]2CO)[C@@H](O)[C@@H](O)[C@@H]1O` (stereo partly drawn) [M6, mannohexaose], the Kd was 205 ± 40 µM in test [1], 33.8 µM on RiMnBP and 165 ± 10 µM at RiCBM27.

diacetylated mannopentaose [M5Ac2] yielded a dissociation constant Kd at RiMnBP of 23.5 µM.

Turning to diacetylated mannotetraose [M4Ac2], on RiMnBP, the Kd amounted to 25.7 µM.
